Assay: Sunlight exposure of buffered aqueous Tetflupyrolimet solutions, Storage Marker formation by HPLC-MS
Assay type: physicochemical
Settings: natural sunlight approximately 2 months; for concentration of the Storage Marker as compared to the solution buffered at pH=7: quartz tube
Method: Three lots of about 50 mg of Tetflupyrolimet were each suspended in about 2 ml of a 2% solution of acetonitrile in water, and sonicated for about 20 minutes.
Into each, about 0.1 ml of a different buffer was added, pH=4, pH=7 and pH=10 respectively.
The three solutions were each filtered and introduced to quartz tubes and exposed to natural sunlight for approximately 2 months.
• Column: Agilent Zorbax Eclipse XDB C18, 150×4.6 mm ID, 5.0 μm • Injection volume: 5 μL • Oven temperature: 40° C. • Detector: UV, □=230, 250, 280 nm • Solvent delivery system conditions at flow rate of 1.0 ml/min: […]

With `CN1C[C@H](c2cccc(C(F)(F)F)c2)[C@@H](C(=O)Nc2ccccc2F)C1=O` [Tetflupyrolimet, (3S,4S)—N-(2-fluorophenyl)-1-methyl-2-oxo-4-(3-(trifluoromethyl)phenyl) pyrrolidine-3-carboxamide] the “formation of Storage Marker (HPLC-MS)” value (2% acetonitrile in water, buffered at pH=4, pH=7 and pH=10, quartz tubes) was “formation of Storage Marker in each solution”, the “concentration of the Storage Marker as compared to the solution buffered at pH=7” value (solution buffered at pH 4) was “approximately an order of magnitude higher concentration of the Storage Marker” and the “concentration of the Storage Marker as compared to the solution buffered at pH=7” value (solution buffered at pH 10) was “approximately an order of magnitude higher concentration of the Storage Marker”.
